Target: T1, murine SR-BI (Mus musculus, UniProt Q61009)
T1 construct: expressed in transfected cells; host or cells: ldlA-7 (LDL receptor deficient Chinese hamster ovary cells)
T1 sequence (Q61009 1-509): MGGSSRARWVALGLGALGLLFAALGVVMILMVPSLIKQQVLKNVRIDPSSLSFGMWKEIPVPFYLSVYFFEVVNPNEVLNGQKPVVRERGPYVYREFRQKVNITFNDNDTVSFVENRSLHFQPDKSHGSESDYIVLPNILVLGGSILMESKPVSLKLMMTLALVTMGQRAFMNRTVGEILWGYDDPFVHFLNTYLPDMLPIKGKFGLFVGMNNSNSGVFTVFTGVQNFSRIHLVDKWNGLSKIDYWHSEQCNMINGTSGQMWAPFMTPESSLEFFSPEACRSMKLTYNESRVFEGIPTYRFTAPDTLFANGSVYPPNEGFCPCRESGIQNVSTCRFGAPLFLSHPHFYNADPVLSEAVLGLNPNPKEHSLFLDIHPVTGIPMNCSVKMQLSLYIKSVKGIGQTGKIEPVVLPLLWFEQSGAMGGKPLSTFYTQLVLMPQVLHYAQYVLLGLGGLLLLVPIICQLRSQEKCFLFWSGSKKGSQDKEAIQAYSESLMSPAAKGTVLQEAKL
Experiment: Uptake of DiI from DiI-HDL by ldlA[mSR-BI] cells (high throughput screen and concentration dependence)
Type: cell-based

[1] = DiI uptake from DiI-HDL, compounds at nominal 10 micromolar, ldlA[mSR-BI] cells

Row | ENDOHDL Test 1 | ENDOHDL Test 2 | ENDOHDL Test 1 [1] | ENDOHDL Test 2 [1] | SMILES
1 | 0.54 | 0.63 |  |  | Cc1nn(-c2ccccc2)c(Cl)c1/N=N/c1ccccc1 [MIT 9952-138]
2 | 0.57 | 0.49 |  |  | COc1ccc2c(c1)c(C(C)=O)c(C)n2-c1ccccc1 [MIT 9952-212]
3 | 0.57 | 1.11 |  |  | CCN1/C(=C/c2sc3ccccc3[n+]2CC)Sc2ccccc21.Cc1ccc(S(=O)(=O)[O-])cc1 [MIT 9952-267]
4 | 0.58 | 0.71 |  |  | CN1CCc2c(c3ccccc3n2-c2ccccc2)C1.Cl [MIT 9952-197]
5 | 0.59 | 0.65 |  |  | Cc1[nH]c2ccccc2c1-c1c2ccccc2nc2ccccc12 [MIT 9952-183]
6 | 0.55 | 0.67 |  |  | CC(=O)Oc1ccc2ccccc2c1C=O [MIT 9952-13]
7 | 0.5 | 0.51 |  |  | O=C(/C=C/c1ccccc1)NC(NC(=S)Nc1cccc([N+](=O)[O-])c1)C(Cl)(Cl)Cl (stereo not shown) [MIT 9952-7]
8 | 1.47 | 1.35 |  |  | O=C(O)c1ccc2c(c1)C(=O)N(c1ccc(C(=O)OCC(=O)c3ccccc3)cc1)C2=O [MIT 9952-190]
9 | 0.63 | 0.53 |  |  | FC(F)(F)c1cccc(N2N=C(/C=C/c3ccccc3)CC2c2ccccc2)c1 (stereo not shown) [MIT 9952-147]
10 | 0.53 | 0.39 |  |  | COc1cc2ccccc2cc1C(=O)Nc1cccc(C)c1 [MIT 9952-237]
11 |  |  | 0.56 | 0.46 | CCOC(=O)C1=C(C)NC(=S)N(C=O)C1c1ccccc1 (stereo not shown) [MIT 9952-297]
12 |  |  | 0.51 | 0.53 | CCOC(=O)C1=C(c2ccc(Cl)cc2)C(=O)c2ccccc2C1=O [MIT 9952-315]
13 | 0.66 | 0.61 |  |  | CCn1c(C)c(-c2ccccc2)c2cc([N+](=O)[O-])ccc21 [MIT 9952-257]
14 | 1.23 | 1.36 |  |  | CCOC(C(=O)OC(C)CN(C)C)(c1ccccc1)c1ccccc1.Cl (stereo not shown) [MIT 9952-128]
15 | 0.52 | 0.58 |  |  | COc1ccc([N+](=O)[O-])cc1NC(=S)NC(NC(=O)C(c1ccccc1)c1ccccc1)C(Cl)(Cl)Cl (stereo not shown) [MIT 9952-140]
16 | 0.55 | 0.82 |  |  | NC(/N=N/c1ccccc1)=N\Nc1ccccc1 [MIT 9952-122]
17 |  |  | 0.61 | 0.6 | COc1ccc([N+](=O)[O-])cc1NC(=O)c1ccccc1 [MIT 9952-338]
18 |  |  | 0.47 | 0.58 | CCSC(=O)C(NC1=C(C)C(=O)N1)c1ccccc1 (stereo not shown) [MIT 9952-292]

The remaining lines, values behind:

Row | SMILES | ENDOHDL Test 1 | ENDOHDL Test 2 | ENDOHDL Test 1 [1] | ENDOHDL Test 2 [1]
19 | COc1cc2c(-c3ccccc3)c(C)oc2cc1/C=N/NC(N)=S [MIT 9952-206] | 0.56 | 0.52 |  | 
20 | Cc1cc(O)nc2cc3oc4ccccc4c3cc12 [MIT 9952-322] |  |  | 0.79 | 0.86
21 | O=C(/C=C/C=C(Cl)Cl)c1ccc2c(c1)OCO2 [MIT 9952-65] | 1.29 | 1.24 |  | 
22 | Cc1cccc(C(=O)Nc2cccc(-c3nc4c(C)cccc4o3)c2)c1 [MIT 9952-236] | 0.57 | 0.38 |  | 
23 | Cl.c1ccc(CCNC2CCCc3c2[nH]c2ccc(C4CCCCC4)cc32)cc1 (stereo not shown) [MIT 9952-258] | 0.51 | 1.0 |  | 
24 | Nc1c(C(=O)c2ccc(Br)cc2)sc2nc(-c3ccccc3)c3c(c12)CCCC3 [MIT 9952-221] | 0.62 | 0.59 |  | 
25 | COc1ccc(NC(=O)Oc2cc(C(C)(C)C)cc(C(C)(C)C)c2)cc1Cl [MIT 9952-182] | 0.71 | 0.41 |  | 
26 | NCC[Se][Se]CCN [MIT 9952-318] |  |  | 0.67 | 0.81
27 | CCn1c2ccccc2c2cc(/C=N/NC(N)=S)ccc21 [MIT 9952-211] | 0.59 | 0.56 |  | 
28 | O=C(COc1ccc(Cl)cc1Cl)Nc1cccc(C(=O)O)c1 [MIT 9952-127] | 0.62 | 0.6 |  | 
29 | O=C(Nc1sc2c(c1C(=O)NCCc1ccc(O)cc1)CCCC2)c1ccccc1 [MIT 9952-296] |  |  | 0.63 | 0.61
30 | O=C(Nc1ccc(Oc2ccc(Cl)c3cccnc23)c(Cl)c1)c1ccc([N+](=O)[O-])cc1 [MIT 9952-324] |  |  | 0.55 | 0.56
31 | CCN(CC)S(=O)(=O)c1cc(C(=O)Nc2ccc(Br)cc2)ccc1Br [MIT 9952-192] | 0.57 | 0.52 |  | 
32 | COc1ccc(COCC(Cl)CN2CCCCC2)cc1OC.Cl (stereo not shown) [MIT 9952-159] | 1.28 | 1.23 |  | 
33 | O=[N+]([O-])c1cccc(-c2ccc(C(=S)N3CCCCC3)o2)c1 [MIT 9952-282] |  |  | 0.49 | 0.5
34 | Nc1ccc(C(=O)Nc2ccc(-c3nc4ccc(NC(=O)c5ccc(N)cc5)c(Cl)c4[nH]3)cc2Cl)cc1 [MIT 9952-334] |  |  | 0.57 | 0.55
35 | O=[N+]([O-])c1ccc(Cl)c(/C=N/c2ccc(S(=O)(=O)c3ccc(/N=C/c4cc([N+](=O)[O-])ccc4Cl)cc3)cc2)c1 [MIT 9952-139] | 1.22 | 1.39 |  | 
36 | CC(CC(=O)NCCc1c[nH]c2ccccc12)C(=O)Cl (stereo not shown) [MIT 9952-12] | 1.25 | 1.26 |  | 
37 | Cc1nn(-c2ccc([N+](=O)[O-])cc2)c(Cl)c1[N+](=O)[O-] [MIT 9952-103] | 0.56 | 0.61 |  | 
38 | CCNc1ccc(N)c(C)c1C.O=S(=O)(O)O [MIT 9952-74] | 0.71 | 0.69 |  | 
39 | O=C(/C=C/c1cccc([N+](=O)[O-])c1)Nc1cccc(Cl)c1 [MIT 9952-291] |  |  | 0.55 | 0.51

Row | SMILES | ENDOHDL Test 1 | ENDOHDL Test 2 | ENDOHDL Test 1 [1] | ENDOHDL Test 2 [1]
40 | CC(C)c1ccc(NC(=O)/C=C/c2cccc([N+](=O)[O-])c2)cc1 [MIT 9952-274] | 0.65 | 0.6 |  | 
41 | O=C(Nc1ccc2c(c1)S(=O)(=O)c1cc(NC(=O)c3cccc4ccccc34)ccc1-2)c1cccc2ccccc12 [MIT 9952-229] | 0.58 | 0.58 |  | 
42 | O=C(NNC(=O)c1cccc2ccccc12)c1ccc(NC(=O)c2cccc3ccccc23)cc1 [MIT 9952-217] | 0.57 | 0.53 |  | 
43 | O=C(O)CSC1CCCC/C1=N\Nc1ccc([N+](=O)[O-])cc1[N+](=O)[O-] (stereo not shown) [MIT 9952-84] | 0.74 | 0.66 |  | 
44 | O=C(NC(NC(=S)Nc1ccc2ccccc2c1)C(Cl)(Cl)Cl)c1cccc([N+](=O)[O-])c1 (stereo not shown) [MIT 9952-216] | 0.54 | 0.58 |  | 
45 | Cc1c([N+](=O)[O-])cc(C(=O)Nc2cccc(NC(=O)c3ccccc3)c2)cc1[N+](=O)[O-] [MIT 9952-235] | 0.62 | 0.33 |  | 
46 | Cc1ccc2[nH]c3c(c2c1)CCCC3NCC12CC3CC(CC(C3)C1)C2 (stereo not shown) [MIT 9952-265] | 0.26 | 0.89 |  | 
47 | O=C(N/N=C\c1ccccc1O)c1ccc(O)cc1 [MIT 9952-170] | 0.54 | 0.54 |  | 
48 | Nc1ccc(C(=O)Nc2ccc(-c3nc4ccc(NC(=O)c5ccc(N)cc5)c(Cl)c4[nH]3)cc2Cl)cc1 [MIT 9952-208] | 0.57 | 0.55 |  | 
49 | C=CCN1C(=O)[C@H]2Cc3c([nH]c4ccccc34)[C@@H](c3ccc4c(c3)OCO4)N2C1=S [MIT 9952-179] | 0.54 | 0.54 |  | 
50 | CSc1sc(SC)c(C[n+]2ccccc2)c1C[n+]1ccccc1.[I-].[I-] [MIT 9952-85] | 0.56 | 0.68 |  | 
51 | C=CCN(CC=C)C(=O)Nc1ccccc1 [MIT 9952-251] | 0.52 | 0.57 |  | 
52 | O=[N+]([O-])c1ccc(-c2sc(/N=C/c3c(O)ccc4ccccc34)nc2-c2ccc(Cl)cc2)cc1 [MIT 9952-286] |  |  | 0.62 | 0.64
53 | C/C(=N\Nc1ccc([N+](=O)[O-])cc1)c1ccc([N+](=O)[O-])cc1 [MIT 9952-245] | 0.54 | 0.64 |  | 
54 | O=C(NC(NC(=S)Nc1ccc(Cl)cc1Cl)C(Cl)(Cl)Cl)c1ccco1 (stereo not shown) [MIT 9952-106] | 0.6 | 0.53 |  | 
55 | COc1ccc(/C=C2/S/C(=N/c3ccccc3)NC2=O)c(OC)c1 [MIT 9952-88] | 0.73 | 0.77 |  | 
56 | C/C(CCS(=O)(=O)c1ccc(C)cc1)=N\NC(N)=S [MIT 9952-225] | 0.56 | 0.59 |  | 
57 | COc1ccccc1NC(=O)Nc1ccc2ccccc2c1 [MIT 9952-149] | 0.62 | 0.6 |  | 
58 | Cc1cccc(C(=O)N/N=C/c2ccccc2Cl)c1 [MIT 9952-194] | 0.76 | 0.46 |  | 
59 | O=C(Nc1ccc(Cl)cc1)c1ccc(N2C(=O)c3ccc(C(=O)Nc4ccc(Cl)cc4)cc3C2=O)cc1 [MIT 9952-161] | 1.37 | 1.5 |  | 

— patent US20040171073A1, “Compounds for modulation of cholesterol transport” (Massachusetts Institute of Technology, priority 2002, published 2004)
